# Numbers after ± are expanded uncertainties.
# Test: xn = mol fraction of the nth substance listed
# Details: Liquid, Vibrating tube method
smiles,measurement,setting,value
CCCCCCCCCC [decane] + CCCCCCC,mass density,"313.16 K, 1000 kPa, x2 = 0.0531",713.67 ± 0.41 kg/m3
same,mass density,"313.16 K, 1000 kPa, x2 = 0.2594",706.37 ± 0.41 kg/m3
same,mass density,"313.16 K, 2000 kPa, x2 = 0.0531",714.44 ± 0.41 kg/m3
same,mass density,"313.16 K, 2000 kPa, x2 = 0.2594",707.17 ± 0.42 kg/m3
same,mass density,"313.16 K, 3000 kPa, x2 = 0.0531",715.27 ± 0.42 kg/m3
same,mass density,"313.16 K, 3000 kPa, x2 = 0.2594",707.97 ± 0.42 kg/m3
same,mass density,"313.16 K, 4000 kPa, x2 = 0.0531",716.08 ± 0.42 kg/m3
same,mass density,"313.16 K, 4000 kPa, x2 = 0.2594",708.78 ± 0.43 kg/m3
same,mass density,"313.16 K, 5000 kPa, x2 = 0.0531",716.94 ± 0.43 kg/m3
same,mass density,"313.16 K, 5000 kPa, x2 = 0.2594",709.65 ± 0.43 kg/m3
same,mass density,"313.16 K, 6000 kPa, x2 = 0.0531",717.67 ± 0.43 kg/m3
same,mass density,"313.16 K, 6000 kPa, x2 = 0.2594",710.5 ± 0.44 kg/m3
same,mass density,"313.16 K, 7000 kPa, x2 = 0.0531",718.51 ± 0.44 kg/m3
same,mass density,"313.16 K, 7000 kPa, x2 = 0.2594",711.35 ± 0.44 kg/m3
same,mass density,"313.16 K, 8000 kPa, x2 = 0.0531",719.34 ± 0.44 kg/m3
same,mass density,"313.16 K, 8000 kPa, x2 = 0.2594",712.2 ± 0.44 kg/m3
same,mass density,"313.16 K, 9000 kPa, x2 = 0.0531",720.13 ± 0.44 kg/m3
same,mass density,"313.16 K, 9000 kPa, x2 = 0.2594",713.05 ± 0.45 kg/m3
same,mass density,"313.16 K, 10000 kPa, x2 = 0.0531",721 ± 0.45 kg/m3
same,mass density,"313.16 K, 10000 kPa, x2 = 0.2594",713.88 ± 0.45 kg/m3
same,mass density,"313.16 K, 10990 kPa, x2 = 0.0531",721.8 ± 0.45 kg/m3
same,mass density,"313.16 K, 10990 kPa, x2 = 0.2594",714.7 ± 0.46 kg/m3
same,mass density,"313.16 K, 12000 kPa, x2 = 0.0531",722.62 ± 0.46 kg/m3
same,mass density,"313.16 K, 12000 kPa, x2 = 0.2594",715.51 ± 0.47 kg/m3
same,mass density,"313.16 K, 13000 kPa, x2 = 0.0531",723.44 ± 0.46 kg/m3
same,mass density,"313.16 K, 13000 kPa, x2 = 0.2594",716.3 ± 0.47 kg/m3
same,mass density,"313.16 K, 14000 kPa, x2 = 0.0531",724.26 ± 0.47 kg/m3
same,mass density,"313.16 K, 14000 kPa, x2 = 0.2594",717.1 ± 0.48 kg/m3
same,mass density,"313.16 K, 15000 kPa, x2 = 0.0531",725.05 ± 0.47 kg/m3
same,mass density,"313.16 K, 15000 kPa, x2 = 0.2594",717.87 ± 0.48 kg/m3
same,mass density,"313.16 K, 16000 kPa, x2 = 0.0531",725.84 ± 0.48 kg/m3
same,mass density,"313.16 K, 16000 kPa, x2 = 0.2594",718.64 ± 0.49 kg/m3
same,mass density,"313.16 K, 17000 kPa, x2 = 0.0531",726.57 ± 0.49 kg/m3
same,mass density,"313.16 K, 17000 kPa, x2 = 0.2594",719.39 ± 0.49 kg/m3
same,mass density,"313.16 K, 18000 kPa, x2 = 0.0531",727.29 ± 0.49 kg/m3
same,mass density,"313.16 K, 18000 kPa, x2 = 0.2594",720.16 ± 0.5 kg/m3
same,mass density,"313.16 K, 19000 kPa, x2 = 0.0531",728.02 ± 0.5 kg/m3
same,mass density,"313.16 K, 19000 kPa, x2 = 0.2594",720.88 ± 0.5 kg/m3
same,mass density,"313.16 K, 20000 kPa, x2 = 0.0531",728.71 ± 0.5 kg/m3
same,mass density,"313.16 K, 20000 kPa, x2 = 0.2594",721.61 ± 0.51 kg/m3
same,mass density,"313.16 K, 21000 kPa, x2 = 0.0531",729.39 ± 0.51 kg/m3
same,mass density,"313.16 K, 21000 kPa, x2 = 0.2594",722.32 ± 0.52 kg/m3
same,mass density,"313.16 K, 22000 kPa, x2 = 0.0531",730.07 ± 0.51 kg/m3
same,mass density,"313.16 K, 22000 kPa, x2 = 0.2594",723.02 ± 0.52 kg/m3
same,mass density,"313.16 K, 23000 kPa, x2 = 0.0531",730.67 ± 0.52 kg/m3
same,mass density,"313.16 K, 23000 kPa, x2 = 0.2594",723.68 ± 0.53 kg/m3
same,mass density,"313.16 K, 24000 kPa, x2 = 0.0531",731.27 ± 0.53 kg/m3
same,mass density,"313.16 K, 24000 kPa, x2 = 0.2594",724.32 ± 0.54 kg/m3
same,mass density,"313.16 K, 25000 kPa, x2 = 0.0531",731.84 ± 0.53 kg/m3
same,mass density,"313.16 K, 25000 kPa, x2 = 0.2594",724.92 ± 0.54 kg/m3
same,mass density,"313.17 K, 1000 kPa, x2 = 0.952",671.13 ± 0.43 kg/m3
same,mass density,"313.17 K, 2000 kPa, x2 = 0.952",672.16 ± 0.44 kg/m3
same,mass density,"313.17 K, 3000 kPa, x2 = 0.952",673.18 ± 0.44 kg/m3
same,mass density,"313.17 K, 4000 kPa, x2 = 0.952",674.17 ± 0.45 kg/m3
same,mass density,"313.17 K, 5000 kPa, x2 = 0.952",675.18 ± 0.45 kg/m3
same,mass density,"313.17 K, 6000 kPa, x2 = 0.952",676.18 ± 0.46 kg/m3
same,mass density,"313.17 K, 7000 kPa, x2 = 0.952",677.15 ± 0.46 kg/m3
same,mass density,"313.17 K, 8000 kPa, x2 = 0.952",678.12 ± 0.47 kg/m3
same,mass density,"313.17 K, 9000 kPa, x2 = 0.952",679.08 ± 0.48 kg/m3
same,mass density,"313.17 K, 10000 kPa, x2 = 0.952",680.03 ± 0.48 kg/m3
same,mass density,"313.17 K, 10990 kPa, x2 = 0.952",680.95 ± 0.49 kg/m3
same,mass density,"313.17 K, 12000 kPa, x2 = 0.952",681.86 ± 0.5 kg/m3
same,mass density,"313.17 K, 13000 kPa, x2 = 0.952",682.77 ± 0.5 kg/m3
same,mass density,"313.17 K, 14000 kPa, x2 = 0.952",683.65 ± 0.51 kg/m3
same,mass density,"313.17 K, 15000 kPa, x2 = 0.952",684.52 ± 0.52 kg/m3
same,mass density,"313.17 K, 16000 kPa, x2 = 0.952",685.39 ± 0.52 kg/m3
same,mass density,"313.17 K, 17000 kPa, x2 = 0.952",686.24 ± 0.53 kg/m3
same,mass density,"313.17 K, 18000 kPa, x2 = 0.952",687.08 ± 0.54 kg/m3
same,mass density,"313.17 K, 19000 kPa, x2 = 0.952",687.9 ± 0.54 kg/m3
same,mass density,"313.17 K, 20000 kPa, x2 = 0.952",688.71 ± 0.55 kg/m3
same,mass density,"313.17 K, 21000 kPa, x2 = 0.952",689.52 ± 0.56 kg/m3
same,mass density,"313.17 K, 22000 kPa, x2 = 0.952",690.29 ± 0.57 kg/m3
same,mass density,"313.17 K, 23000 kPa, x2 = 0.952",691.05 ± 0.57 kg/m3
same,mass density,"313.17 K, 24000 kPa, x2 = 0.952",691.82 ± 0.58 kg/m3
same,mass density,"313.17 K, 25000 kPa, x2 = 0.952",692.57 ± 0.59 kg/m3
same,mass density,"313.18 K, 1000 kPa, x2 = 0.5219",695.19 ± 0.42 kg/m3
same,mass density,"313.18 K, 1000 kPa, x2 = 0.777",681.87 ± 0.43 kg/m3
same,mass density,"313.18 K, 2000 kPa, x2 = 0.5219",696.01 ± 0.42 kg/m3
same,mass density,"313.18 K, 2000 kPa, x2 = 0.777",682.77 ± 0.43 kg/m3
same,mass density,"313.18 K, 3000 kPa, x2 = 0.5219",696.84 ± 0.43 kg/m3
same,mass density,"313.18 K, 3000 kPa, x2 = 0.777",683.7 ± 0.43 kg/m3
same,mass density,"313.18 K, 4000 kPa, x2 = 0.5219",697.74 ± 0.43 kg/m3
same,mass density,"313.18 K, 4000 kPa, x2 = 0.777",684.64 ± 0.44 kg/m3
same,mass density,"313.18 K, 5000 kPa, x2 = 0.5219",698.6 ± 0.44 kg/m3
same,mass density,"313.18 K, 5000 kPa, x2 = 0.777",685.58 ± 0.45 kg/m3
same,mass density,"313.18 K, 6000 kPa, x2 = 0.5219",699.5 ± 0.44 kg/m3
same,mass density,"313.18 K, 6000 kPa, x2 = 0.777",686.52 ± 0.45 kg/m3
same,mass density,"313.18 K, 7000 kPa, x2 = 0.5219",700.44 ± 0.45 kg/m3
same,mass density,"313.18 K, 7000 kPa, x2 = 0.777",687.47 ± 0.46 kg/m3
same,mass density,"313.18 K, 8000 kPa, x2 = 0.5219",701.28 ± 0.45 kg/m3
same,mass density,"313.18 K, 8000 kPa, x2 = 0.777",688.4 ± 0.46 kg/m3
same,mass density,"313.18 K, 9000 kPa, x2 = 0.5219",702.17 ± 0.46 kg/m3
same,mass density,"313.18 K, 9000 kPa, x2 = 0.777",689.32 ± 0.47 kg/m3
